# Reference: ChEMBL document CHEMBL5465560, “Selectivity Literature for EUbOPEN Chemogenomic Library” (2024)
# How the values were obtained:
# [1] = biological target: Ribosomal protein S6 kinase alpha-4 (Homo sapiens) (UniProt O75676); conditions: at 10 µM
# [2] = biological target: Sphingosine kinase 1 (Homo sapiens) (UniProt Q9NYA1); experiment: Selectivity interaction (Kinase panel (Invitrogen)) EUB0000639a SPHK1; conditions: at 200 nM
# [3] = biological target: T1, Serine/threonine-protein kinase TAO3 (Homo sapiens) (UniProt Q9H2K8); experiment: Selectivity interaction (KinomeScan (DiscoverX)) EUB0000607a TAOK3; conditions: at 10 µM
# T1 sequence (whole entry): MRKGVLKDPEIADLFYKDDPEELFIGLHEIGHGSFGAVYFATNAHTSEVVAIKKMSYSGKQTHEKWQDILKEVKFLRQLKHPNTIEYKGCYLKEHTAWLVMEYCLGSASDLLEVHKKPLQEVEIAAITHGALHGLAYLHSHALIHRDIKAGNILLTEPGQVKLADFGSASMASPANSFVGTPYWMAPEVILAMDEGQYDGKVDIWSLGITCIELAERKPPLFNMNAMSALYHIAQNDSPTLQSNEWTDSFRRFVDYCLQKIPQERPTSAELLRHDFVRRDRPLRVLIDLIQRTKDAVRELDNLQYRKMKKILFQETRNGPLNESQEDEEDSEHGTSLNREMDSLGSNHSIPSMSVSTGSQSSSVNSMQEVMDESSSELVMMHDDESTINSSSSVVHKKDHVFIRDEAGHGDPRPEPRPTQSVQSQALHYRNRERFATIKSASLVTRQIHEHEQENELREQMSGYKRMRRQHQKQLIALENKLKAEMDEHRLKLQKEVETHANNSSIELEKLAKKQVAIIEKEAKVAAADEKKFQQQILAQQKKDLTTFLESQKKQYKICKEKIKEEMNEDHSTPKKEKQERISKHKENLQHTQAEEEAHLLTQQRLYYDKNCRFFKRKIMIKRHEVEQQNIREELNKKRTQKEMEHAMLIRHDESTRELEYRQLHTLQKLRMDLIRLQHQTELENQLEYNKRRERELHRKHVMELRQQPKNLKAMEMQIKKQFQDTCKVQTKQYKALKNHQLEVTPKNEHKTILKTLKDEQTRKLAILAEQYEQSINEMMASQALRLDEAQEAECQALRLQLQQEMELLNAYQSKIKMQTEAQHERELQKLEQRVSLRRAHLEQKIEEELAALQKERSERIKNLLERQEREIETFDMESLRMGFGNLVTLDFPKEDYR
# [4] = biological target: T2, Tyrosine-protein kinase Tec (Homo sapiens) (UniProt P42680); experiment: Selectivity interaction (KinomeScan (DiscoverX)) EUB0000607a TEC; conditions: at 10 µM
# T2 sequence (whole entry): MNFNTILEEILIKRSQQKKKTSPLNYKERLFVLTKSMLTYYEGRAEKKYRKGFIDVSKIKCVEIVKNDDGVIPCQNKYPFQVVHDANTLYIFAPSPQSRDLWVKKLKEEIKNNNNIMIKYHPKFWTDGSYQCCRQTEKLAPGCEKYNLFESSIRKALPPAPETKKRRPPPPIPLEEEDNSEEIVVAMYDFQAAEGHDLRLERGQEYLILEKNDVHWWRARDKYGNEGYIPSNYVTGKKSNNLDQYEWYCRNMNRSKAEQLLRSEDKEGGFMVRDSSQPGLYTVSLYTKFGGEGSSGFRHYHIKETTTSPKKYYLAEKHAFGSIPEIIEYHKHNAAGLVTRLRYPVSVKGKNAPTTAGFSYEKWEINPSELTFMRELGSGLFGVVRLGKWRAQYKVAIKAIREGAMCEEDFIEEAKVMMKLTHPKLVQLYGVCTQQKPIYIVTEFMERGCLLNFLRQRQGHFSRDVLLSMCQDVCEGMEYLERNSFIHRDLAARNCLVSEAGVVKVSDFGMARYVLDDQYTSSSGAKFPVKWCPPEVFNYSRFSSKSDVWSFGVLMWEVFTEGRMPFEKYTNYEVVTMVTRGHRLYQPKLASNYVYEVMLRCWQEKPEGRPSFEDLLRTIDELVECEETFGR
# [5] = biological target: Activin receptor type-1-like (Homo sapiens) (UniProt P37023); experiment: Selectivity interaction (KinomeScan (DiscoverX)) EUB0000595a ACVRL1; conditions: at 10 µM
# [6] = biological target: Tyrosine-protein kinase receptor Tie-1 (Homo sapiens) (UniProt P35590); experiment: Selectivity interaction (KinomeScan (DiscoverX)) EUB0000045b TIE1
# [7] = biological target: Macrophage colony-stimulating factor 1 receptor (Homo sapiens) (UniProt P07333); experiment: Selectivity interaction (Ambit KINOMEscan and KiNATiv profiling in Jurkat cells) EUB0000090b CSF1R; assay type: cell-based; conditions: at 1 µM
# Sequence of Macrophage colony-stimulating factor 1 receptor (Homo sapiens) (P07333 whole entry): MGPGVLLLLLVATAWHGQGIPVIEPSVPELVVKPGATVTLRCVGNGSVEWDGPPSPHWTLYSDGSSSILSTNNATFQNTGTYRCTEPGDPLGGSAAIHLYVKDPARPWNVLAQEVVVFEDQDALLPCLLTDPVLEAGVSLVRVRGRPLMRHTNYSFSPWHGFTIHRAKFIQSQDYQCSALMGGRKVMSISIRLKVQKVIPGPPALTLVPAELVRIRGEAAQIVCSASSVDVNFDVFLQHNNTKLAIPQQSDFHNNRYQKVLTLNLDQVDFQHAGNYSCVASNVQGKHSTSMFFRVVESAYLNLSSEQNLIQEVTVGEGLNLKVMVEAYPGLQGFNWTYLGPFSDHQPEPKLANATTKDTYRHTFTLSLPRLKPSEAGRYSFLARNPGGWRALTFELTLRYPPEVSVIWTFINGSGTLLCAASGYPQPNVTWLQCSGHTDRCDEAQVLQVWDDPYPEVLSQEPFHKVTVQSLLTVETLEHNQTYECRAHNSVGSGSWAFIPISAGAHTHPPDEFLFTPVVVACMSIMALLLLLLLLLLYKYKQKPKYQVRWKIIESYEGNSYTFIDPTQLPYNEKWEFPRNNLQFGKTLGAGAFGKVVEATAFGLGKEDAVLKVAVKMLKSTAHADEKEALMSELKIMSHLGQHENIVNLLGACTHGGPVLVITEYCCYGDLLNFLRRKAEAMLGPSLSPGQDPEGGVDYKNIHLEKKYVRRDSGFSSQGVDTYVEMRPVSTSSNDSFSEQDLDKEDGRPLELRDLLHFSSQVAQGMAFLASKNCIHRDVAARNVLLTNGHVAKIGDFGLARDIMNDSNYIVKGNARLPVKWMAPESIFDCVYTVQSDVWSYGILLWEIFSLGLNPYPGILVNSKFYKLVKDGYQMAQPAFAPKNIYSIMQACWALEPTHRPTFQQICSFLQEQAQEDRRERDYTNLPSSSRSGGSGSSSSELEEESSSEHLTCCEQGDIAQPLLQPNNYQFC
# Sequence of Tyrosine-protein kinase receptor Tie-1 (Homo sapiens) (P35590 whole entry): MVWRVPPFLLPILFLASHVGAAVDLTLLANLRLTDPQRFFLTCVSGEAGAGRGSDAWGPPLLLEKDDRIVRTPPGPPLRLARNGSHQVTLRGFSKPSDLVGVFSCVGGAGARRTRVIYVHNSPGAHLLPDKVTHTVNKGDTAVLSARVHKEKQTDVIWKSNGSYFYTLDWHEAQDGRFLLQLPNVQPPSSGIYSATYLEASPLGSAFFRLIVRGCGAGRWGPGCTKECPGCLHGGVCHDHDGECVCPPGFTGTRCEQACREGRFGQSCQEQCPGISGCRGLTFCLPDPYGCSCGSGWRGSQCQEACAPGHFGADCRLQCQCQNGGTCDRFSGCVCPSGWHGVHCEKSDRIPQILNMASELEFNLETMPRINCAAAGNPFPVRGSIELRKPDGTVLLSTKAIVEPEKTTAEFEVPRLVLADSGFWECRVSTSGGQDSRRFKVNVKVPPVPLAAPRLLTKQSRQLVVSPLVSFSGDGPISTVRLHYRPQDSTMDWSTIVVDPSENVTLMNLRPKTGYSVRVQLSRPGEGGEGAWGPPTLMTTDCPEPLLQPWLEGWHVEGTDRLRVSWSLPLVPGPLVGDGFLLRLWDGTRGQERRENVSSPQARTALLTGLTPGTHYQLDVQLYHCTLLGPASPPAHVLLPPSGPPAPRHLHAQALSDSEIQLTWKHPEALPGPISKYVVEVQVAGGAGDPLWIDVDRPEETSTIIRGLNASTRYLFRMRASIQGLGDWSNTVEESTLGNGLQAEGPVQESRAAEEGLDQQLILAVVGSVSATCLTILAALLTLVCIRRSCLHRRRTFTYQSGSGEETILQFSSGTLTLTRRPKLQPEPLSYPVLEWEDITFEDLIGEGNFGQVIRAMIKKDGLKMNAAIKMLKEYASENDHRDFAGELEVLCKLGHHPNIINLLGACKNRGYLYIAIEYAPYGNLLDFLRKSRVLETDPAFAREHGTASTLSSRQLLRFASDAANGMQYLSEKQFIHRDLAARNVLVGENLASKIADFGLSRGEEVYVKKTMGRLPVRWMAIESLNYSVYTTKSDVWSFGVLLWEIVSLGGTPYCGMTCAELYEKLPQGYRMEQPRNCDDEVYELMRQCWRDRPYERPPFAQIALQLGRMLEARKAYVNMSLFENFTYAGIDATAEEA
# Sequence of Sphingosine kinase 1 (Homo sapiens) (Q9NYA1 whole entry): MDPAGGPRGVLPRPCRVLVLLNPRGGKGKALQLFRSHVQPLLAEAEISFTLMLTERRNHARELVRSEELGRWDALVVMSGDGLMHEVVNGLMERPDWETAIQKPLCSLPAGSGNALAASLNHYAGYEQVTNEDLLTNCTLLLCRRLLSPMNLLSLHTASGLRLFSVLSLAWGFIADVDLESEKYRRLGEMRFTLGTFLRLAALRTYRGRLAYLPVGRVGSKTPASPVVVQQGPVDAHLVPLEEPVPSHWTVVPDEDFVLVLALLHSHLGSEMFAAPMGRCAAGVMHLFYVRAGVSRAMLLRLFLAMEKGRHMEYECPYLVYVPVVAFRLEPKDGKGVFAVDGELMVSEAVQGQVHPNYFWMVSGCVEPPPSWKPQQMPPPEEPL
# Sequence of Activin receptor type-1-like (Homo sapiens) (P37023 whole entry): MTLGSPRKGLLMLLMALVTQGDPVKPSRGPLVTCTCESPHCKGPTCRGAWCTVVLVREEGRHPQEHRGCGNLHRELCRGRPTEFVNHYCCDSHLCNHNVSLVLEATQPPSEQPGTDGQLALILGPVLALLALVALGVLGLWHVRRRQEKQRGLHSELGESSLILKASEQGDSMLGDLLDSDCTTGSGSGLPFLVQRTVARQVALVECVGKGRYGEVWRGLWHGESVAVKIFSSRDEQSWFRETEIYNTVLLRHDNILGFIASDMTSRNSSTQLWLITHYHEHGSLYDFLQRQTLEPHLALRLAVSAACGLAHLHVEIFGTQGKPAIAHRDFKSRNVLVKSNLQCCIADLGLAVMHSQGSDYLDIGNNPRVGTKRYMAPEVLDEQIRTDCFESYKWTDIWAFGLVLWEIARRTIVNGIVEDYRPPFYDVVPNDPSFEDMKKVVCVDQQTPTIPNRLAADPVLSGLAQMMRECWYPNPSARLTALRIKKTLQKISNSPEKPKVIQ
# Sequence of Ribosomal protein S6 kinase alpha-4 (Homo sapiens) (O75676 whole entry, looked up): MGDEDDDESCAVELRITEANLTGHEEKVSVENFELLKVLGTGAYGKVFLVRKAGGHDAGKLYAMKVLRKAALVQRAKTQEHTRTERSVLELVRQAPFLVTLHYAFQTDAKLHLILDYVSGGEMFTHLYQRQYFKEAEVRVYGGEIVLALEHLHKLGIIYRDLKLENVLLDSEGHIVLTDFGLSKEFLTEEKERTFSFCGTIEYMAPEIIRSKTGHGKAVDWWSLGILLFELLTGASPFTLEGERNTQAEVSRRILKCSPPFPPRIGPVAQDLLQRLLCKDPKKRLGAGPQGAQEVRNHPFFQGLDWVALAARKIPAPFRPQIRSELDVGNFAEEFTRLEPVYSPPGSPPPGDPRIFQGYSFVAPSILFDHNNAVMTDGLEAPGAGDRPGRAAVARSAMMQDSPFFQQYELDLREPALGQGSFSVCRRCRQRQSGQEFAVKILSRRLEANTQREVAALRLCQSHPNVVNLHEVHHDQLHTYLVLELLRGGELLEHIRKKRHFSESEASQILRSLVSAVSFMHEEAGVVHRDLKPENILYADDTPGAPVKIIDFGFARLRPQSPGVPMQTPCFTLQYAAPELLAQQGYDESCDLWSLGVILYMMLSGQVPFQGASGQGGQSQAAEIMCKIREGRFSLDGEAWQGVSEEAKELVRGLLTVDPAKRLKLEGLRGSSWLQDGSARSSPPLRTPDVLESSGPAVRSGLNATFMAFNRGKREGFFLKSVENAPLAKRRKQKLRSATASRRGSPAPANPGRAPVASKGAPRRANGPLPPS
structure (smiles),measurement,setting,value
Cc1cc([C@@H](C)Nc2ccccc2C(=O)O)c2nc(N3CCOCC3)cc(=O)n2c1 [AZD-6482],% of control,[1],100%
CC[C@@H]1[C@H](F)C(=O)N[C@@H]1COc1nccc2cc(C(N)=O)c(OC)cc12 [ZIMLOVISERTIB],% of inhibition,[2],2.77%
CNC(=O)Nc1ccc(-c2nc(N3CC4CCC(C3)O4)c3cnn(C4CCC5(CC4)OCCO5)c3n2)cc1,% of control,[3],90%
same,% of control,[4],84%
COCC(=O)NC/C=C/c1ccc2ncnc(Nc3ccc(Oc4ccc(C)nc4)c(C)c3)c2c1 [CP-724714],% of control,[5],84%
C=CC(=O)Nc1cc(-n2c(=O)ccc3cnc4ccc(-c5ccc(NS(C)(=O)=O)cc5)cc4c32)ccc1C,% of control,[6]; at 1 µM,100%
same,% of control,[6]; at 10 µM,89%
CN(C)C/C=C/C(=O)Nc1ccc(C(=O)N2CCCC(Nc3ncc(Cl)c(-c4c[nH]c5ccccc45)n3)C2)cc1 (stereo not drawn),% of control,[7],90%
